Test results from paper PMC11790956, “A microscale thermophoresis-based enzymatic RNA methyltransferase assay enables the discovery of DNMT2 inhibitors” (Communications Chemistry, 2025).
Entries after “also recorded” stand apart in the source; their conditions may differ. Blank lines part the entries; values can stand above or below the molecule they belong to.

Experiments:
[1] = biological target: T1, DNMT2-tRNA complex (Homo sapiens, UniProt O14717); test: Electrophoretic mobility shift assay (EMSA) of the DNMT2-tRNA complex; assay type: binding; settings: 500 µM compound, DNMT2 10 µM, tRNAAsp 5 µM
T1 construct: made in house
T1 sequence (O14717 1-391): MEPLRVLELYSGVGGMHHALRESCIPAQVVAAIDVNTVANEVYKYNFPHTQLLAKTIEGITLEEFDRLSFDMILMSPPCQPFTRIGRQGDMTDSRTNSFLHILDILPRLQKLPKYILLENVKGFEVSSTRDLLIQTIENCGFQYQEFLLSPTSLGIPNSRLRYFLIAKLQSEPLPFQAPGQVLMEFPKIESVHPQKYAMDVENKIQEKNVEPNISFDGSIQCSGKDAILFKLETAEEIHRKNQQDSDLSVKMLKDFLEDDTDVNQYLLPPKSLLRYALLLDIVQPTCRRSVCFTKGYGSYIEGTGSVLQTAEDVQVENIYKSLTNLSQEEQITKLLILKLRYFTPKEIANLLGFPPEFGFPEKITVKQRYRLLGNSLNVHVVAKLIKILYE
Method: We speculated these hits might bind very weakly to the tRNA-DNMT2 interaction site and by this inhibit DNMT2 activity. To test this hypothesis, we performed an electrophoretic mobility shift assay (EMSA) using tRNA^Asp (5 µM) and DNMT2 (10 µM) compared to the tRNA sample in absence of the DNMT2 protein (SI Fig. 4)[33]. […] Subsequently, we treated the DNMT2-tRNA complex with all hit compounds at 500 µM and observed their potential to disrupt the complex.
DNMT2 (10 µM) was mixed with tRNA^Asp (5 µM) and treated with 500 µM of the respective screening hit compound in DNMT2 assay buffer (100 mM Tris-HCl, pH 8, 100 mM NH4OAc, 0.1 mM EDTA, 10 mM MgCl2, 10 mM DTT). Subsequently, reaction samples (each 5 µL) were loaded to a native 10% polyacrylamide gel and separated electrophoretically (1 h, 180 V) in 1x TBE. RNA was stained in situ with 1x GelRed and PAGE analysis was conducted by fluorescence scanning at an excitation wavelength of 532 nm (Amersham Typhoon 9400). Positive control: DNMT2+tRNA (band at high molecular weights); negative control: only tRNA (band at low molecular weights).
SI Figure 4. Electrophore?c mobility shi? assay (EMSA) to inves?gate the inﬂuence of screening hits on the DNMT2-tRNA complex forma?on. D NMT2 (10 µ M ) was mixe d w it h t RNAAsp (5 µM) and treated with 50 0 µM of the respec?ve screening hit compound in DNMT2 assay buﬀer. All reac?on samples (each 5 µL) were loaded to a na?ve 10% polyacr ylamide gel and separated electrophore?cally (1 h, 1 80 V) in 1x TBE. RNA was stained in situ with 1x GelRed and PAGE analysis was conducted by ﬂuorescence scanning at an excita?on wavelength of 532 nm (Amersham Typhoon 9400). Po s i ? ve control: DNMT2+tRNA (band at high molecular weights); nega?ve control: only tRNA (band at low

[2] = biological target: T2, DNMT2 (Homo sapiens, UniProt O14717); test: DNMT2 enzymatic split aptamer MST assay; assay type: biochemical; settings: for IC50: MST-derived, 250 nM DNMT2, 5 µM tRNA, 0.9 µM SAM
T2 construct: made in house
T2 sequence (O14717 1-391): T1 sequence (O14717 1-391)
Method: The enzyme kinetics were characterized by calculating the Michaelis-Menten constant (KM or kcat) and inhibitory constants (IC50 resp. KI).
The final drug compound concentration was adjusted to 500 µM for the epigenetic drug library (Fig. 5) resp. 100 µM for the covalent compound library (Fig. 6), and the enzymatic reaction was incubated for 30 min at 25 °C. Subsequently, enzymatic reactions were terminated by the addition of 0.3% SDS, and the product SAH was quantified by the split aptamer MST assay (Figs. 5A, B, 6A).

[3] = biological target: T2, DNMT2; test: DNMT2 fluorescence polarization (FP) FTAD displacement assay; assay type: binding
Method: Fluorescence polarization assays were conducted with a similar sample composition as described for FTAD-MST assays as described previously. Triplicates (50 µL) were prepared in black 96-well half-area plates (Greiner) and measured using a Spark 10 M plate reader (Tecan) equipped with polarization filters coupled to a monochromator setup (FTAD: λex = 480 nm, λem = 530 nm). Polarization values (in mP) were calculated from polarization-specific parallel and orthogonal fluorescence intensities according to the Tecan in-built calculation routine.
Reversibility of alexidine binding to DNMT2 was evaluated with a modified FP-assay setup. Briefly, reaction mixtures containing alexidine were prepared in black 96-well half-area plates, and after FP measurement, the volume of one well (50 µL) was collected and applied to a Zeba™ Spin Desalting Column (7 K MWCO) while 5 µL of a 10x DNMT2 buffer solution (500 mM HEPES, 1.5 M NaCl, 10 mM dithiothreitol (DTT), 1% PEG-8000, 0.5% polysorbate-20, pH 7.4) was placed in the collection tube attached to the SEC column. This procedure separated alexidine and restored the initial composition of the DNMT2 assay solution.
Kinetic FP assays were performed to assess the time-dependent inactivation of DNMT2 treated with covalent inhibitors. Briefly, samples contained 2 µM DNMT2, 100 nM FTAD probe, and 1.3% DMSO in DNMT2 MST buffer. Inhibitors were added from DMSO stocks. Negative inhibition control was performed by mock treatment with DMSO. Reactions were initiated by the addition of the Cpd 11 (adamantanyl-acryloylurea) and monitored for 120 min at 25 °C in a Tecan Spark 10 M plate reader (FTAD: λex = 480 nm, λem = 530 nm) The irreversible inhibition kinetics were analyzed as described previously[35],[36].

[4] = system: aptaSAH1&2 SAH split aptamer; test: Split aptamer (aptaSAH1&2) MST ligand titration; assay type: binding, D. aromatica
Method: To establish our experimental setup, we mixed both aptamer fragment oligonucleotides at equimolar concentrations (final: 50 nM) and titrated series of SAH resp. SAM dilutions to this prototypical SAH biosensor. […] Furthermore, MST assays require only 10 µL of sample volume per capillary compared to 30 µL per well in a 96-well plate supporting high-throughput applications in material consumption.
To evaluate the effect of inhibitors on DNMT2 activity, we used two known inhibitors, SHO108 and SH112. These SAH derivatives were selected based on their documented efficacy for DNMT2[8],[26].
For MTase assay detection by MST, enzyme reaction mixtures with a total volume of 10 µL per single treatment condition were prepared and incubated for the desired reaction times. Inhibitors were added from corresponding DMSO stocks to a final DMSO concentration of max. 5%. Afterward, reactions were quenched at a given reaction time by the addition of 1 µL sodium dodecyl sulfate (SDS, solution, 3% in water) per 10 µL reaction mixture and mixed well by pipetting. Subsequently, 1 µL of a 10× aptamer-containing detection master mix (200 mM Tris, pH 8.5, 200 mM MgCl2, 3 M NaCl, 10 mM urea, 0.2% Brij, 500 nM aptaSAH1, 500 nM aptaSAH2) was added to the quenched MTase reaction and incubated for 1 h at room temperature. Reaction mixtures were loaded directly to MST capillaries without further purification or sample processing.
MST experiments were carried out in at least technical triplicates using a Monolith NT.115 instrument (NanoTemper Technologies) using Monolith standard capillaries and the blue excitation laser setup. The instrument was calibrated according to the manufacturer’s instructions. General settings were applied for all MST experiments as follows: manual temperature control: 25 °C, fluorescence measurement before MST: 4 s, MST (IR laser) on: 20 s, fluorescence after MST: 2 s, delay: 25 s. The laser power was adjusted to optimize the signal-to-noise ratio and the fluorescence signal. LED and MST power settings were chosen individually for each sample by adjusting the LED power to yield fluorescence signals of at least 300 units (blue laser) or 3000 units (red laser) and the MST power to achieve an appropriate thermophoretic response (standard setting: medium MST power). MST measurements were analyzed using the NT analysis software (version 1.5.41) and exported for statistical analysis and plotting in GraphPad Prism 7.01.

[5] = biological target: T2, DNMT2; test: DNMT2 radiometric 3H incorporation assay; assay type: biochemical
Method: (§1) To further validate our findings on DNMT2, we compared the split aptamer inhibition assay results of both inhibitors with those obtained from a previously published orthogonal assay method, the radiometric ^3H incorporation assay[8],[26]. […] Using an additional non-enzymatic MTase assay technique, we also investigated the two DNMT2 inhibitors utilizing an orthogonal MST method based on a fluorescent tracer displacement assay (SI Fig. 1)[27],[28].
Radiometric DNMT2 assays were carried out as described previously. HTRF MTase assays with the commercial AptaFluor SAH assay kit (BellBrook Labs) were performed as described in the manufacturer’s manual in 96-well format.

[6] = biological target: T2, DNMT2; test: Fluorescent tracer displacement assay (FTAD-MST assay); assay type: binding
Description: as §1
Fluorescent tracer displacement MST assays for orthogonal ligand evaluation were conducted as described previously. The samples contained 2 µM DNMT2, 100 nM FTAD probe, and 1.3% DMSO in MST buffer (50 mM HEPES, 150 mM NaCl, 1 mM dithiothreitol (DTT), 0.1% PEG-8000, 0.05% polysorbate-20, pH 7.4) supplemented with variable concentrations of the screening compounds. All samples were measured in triplicates in Monolith standard capillaries at 25 °C. The acquisition mode was set to “Nano-Blue” with an excitation power of 30% and a medium MST power. MST measurements were analyzed using the NT analysis software (version 1.5.41) and exported for statistical analysis and plotting in GraphPad Prism 7.01.

[7] = inhibitor titrated up to 100 µM without enzyme or RNA substrate, compared to the SAH-positive control

SMILES: c1cc(-c2cnn3cc(-c4ccc(OCCN5CCCCC5)cc4)cnc23)ccn1 [Cpd 1]
influence on DNMT2-tRNA complex formation [1]: showed the potential to reverse the complex formation

SMILES: COc1cc2nc(N3CCCN(C)CC3)nc(NC3CCN(Cc4ccccc4)CC3)c2cc1OC [Cpd 2]
influence on DNMT2-tRNA complex formation [1]: showed the potential to reverse the complex formation

DNMT2 inhibition at concentrations <500 µM ([2]; enzymatic aptamer assay): showed inhibition | fluorescence polarization in the presence of compound ([3]; DNMT2-FTAD complex alone 96 mP): 5 mP | Kd ([3]; DNMT2 FP assay, FTAD tracer): 364 µM | reversibility of binding ([3]; FP displacement with SEC separation): fully reversible binder | fluorescence polarization restored after size-exclusion chromatography ([3]; after SEC removal of compound): 92 mP | fluorescence polarization after second treatment ([3]; second treatment after SEC): 4 mP
SMILES: CCCCC(CC)CNC(=N)NC(=N)NCCCCCCNC(=N)NC(=N)NCC(CC)CCCC (centres unmarked) [Cpd 3, alexidine]
displacement of FTAD tracer / binding to SAH-binding site ([3]; FP library screening with FTAD tracer): binding to the SAH-binding site; also recorded: able to compete with the fluorescent SAH-analog | influence on DNMT2-tRNA complex formation [1]: do not inﬂuence the complex; also recorded: did not influence DNMT2-tRNA complex formation

SMILES: CC(=O)c1cc([N+](=O)[O-])c(Sc2ccc(F)cc2F)s1 [Cpd 4]
influence on DNMT2-tRNA complex formation [1]: do not inﬂuence the complex; also recorded: unable to disrupt the protein-tRNA complex

SMILES: Cc1ncc(Cl)cc1NCc1ccc(C(=O)N[C@@H](CC2CCCC2)C(=O)NC2CC2)s1 [Cpd 5]
influence on DNMT2-tRNA complex formation [1]: showed the potential to reverse the complex formation

SMILES: COc1ccn2ncc(-c3nc4[nH]nc(NC(=O)c5ccc(F)cc5)c4cc3F)c2c1 [Cpd 6]
influence on DNMT2-tRNA complex formation [1]: showed the potential to reverse the complex formation

SMILES: Cc1cc(Nc2cc(Cl)nc(Oc3ccc([N+](=O)[O-])cc3)n2)n[nH]1 [Cpd 7]
influence on DNMT2-tRNA complex formation [1]: do not inﬂuence the complex; also recorded: unable to disrupt the protein-tRNA complex

SMILES: N[C@H](CNc1nc(-c2ccncc2)nc2sc3c(c12)CCCC3)Cc1ccccc1 [Cpd 8]
influence on DNMT2-tRNA complex formation [1]: showed the potential to reverse the complex formation

SMILES: CNC(=O)Nc1ccc2c(c1)CCC21OC(=O)N(CC(=O)N(Cc2ccc(F)cc2)C(C)C(F)(F)F)C1=O (centres unmarked) [Cpd 9]
influence on DNMT2-tRNA complex formation [1]: showed the potential to reverse the complex formation

SMILES: Cc1ccc(C(=O)COC(=O)c2cccc(NC(=O)c3ccc([N+](=O)[O-])cc3[N+](=O)[O-])c2)cc1 [Cpd 10]
influence on DNMT2-tRNA complex formation [1]: do not inﬂuence the complex; also recorded: unable to disrupt the protein-tRNA complex

SMILES: Nc1ncnc2c1ncn2[C@@H]1O[C@H](CN(CC[C@H](N)C(=O)O)Cc2ccc(Cl)c(C(F)(F)F)c2)[C@@H](O)[C@H]1O [SH112, (S)-2-amino-4-((((2 R,3S,4 R,5 R)-5-(6-amino-9H-purin-9-yl)-3,4-dihydroxytetrahydrofuran-2-yl)methyl)(4-chloro-3-(trifluoromethyl)benzyl)amino)butanoic acid]
binding to split aptamer (MST shift) [4, 7]: not binding to the aptamer at relevant concentrations; also recorded: only minimal MST shifts | IC50 [2]: 9.3 ± 1.7 µM | IC50 [5]: 15.6 ± 3.9 µM | Kd [6]: 7.8 µM

IC50 [2]: 7.9 ± 1.8 µM | IC50 ([5]; orthogonal 3H-incorporation assay, read-out: IC50): 9.3 ± 1.8 µM | Kd ([6]; MST FTAD tracer displacement, 2 µM DNMT2, 100 nM FTAD, read-out: KD): 4.7 µM
SMILES: C#CCN(CC[C@H](N)C(=O)O)C[C@H]1O[C@@H](n2cnc3c(N)ncnc32)[C@H](O)[C@@H]1O [SHO108, (S)-2-amino-4-((((2 R,3S,4 R,5 R)-5-(6-amino-9H-purin-9-yl)-3,4-dihydroxytetrahydrofuran-2-yl)methyl)(prop-2-yn-1-yl)amino)butanoic acid]
binding to split aptamer (MST shift) [4, 7]: not binding to the aptamer at relevant concentrations; also recorded: only minimal MST shifts

binding to split aptamer (MST shift) ([4]; SAH analogs at 10 µM, aptaSAH1&2 both 50 nM): slight MST shift
SMILES: Nc1ncnc2c1ncn2[C@@H]1O[C@H](C[C@@H](N)CC[C@H](N)C(=O)O)[C@@H](O)[C@H]1O [sinefungin]
